# Like-named read-outs stand apart in the source and are kept apart here.
# Columns and labels:
# [1] = molecular target: AEA-DA lipid probe targets in Neuro2a cells (Mus musculus, UniProt P08113)
# [2] = molecular target: T1, AEA-DA lipid probe targets in Neuro2a cells (Mus musculus, UniProt P15626)
# T1 sequence (P15626 1-218): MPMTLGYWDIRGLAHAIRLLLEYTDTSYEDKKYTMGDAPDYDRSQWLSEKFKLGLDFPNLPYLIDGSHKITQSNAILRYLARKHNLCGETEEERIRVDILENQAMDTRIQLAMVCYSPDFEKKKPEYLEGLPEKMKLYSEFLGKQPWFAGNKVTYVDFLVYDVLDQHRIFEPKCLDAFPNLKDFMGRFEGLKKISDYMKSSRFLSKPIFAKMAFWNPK
# [3] = molecular target: AEA-DA lipid probe targets in Neuro2a cells (Mus musculus, UniProt P62814)
# Sequence of AEA-DA lipid probe targets in Neuro2a cells (Mus musculus, UniProt P62814) (P62814 whole entry): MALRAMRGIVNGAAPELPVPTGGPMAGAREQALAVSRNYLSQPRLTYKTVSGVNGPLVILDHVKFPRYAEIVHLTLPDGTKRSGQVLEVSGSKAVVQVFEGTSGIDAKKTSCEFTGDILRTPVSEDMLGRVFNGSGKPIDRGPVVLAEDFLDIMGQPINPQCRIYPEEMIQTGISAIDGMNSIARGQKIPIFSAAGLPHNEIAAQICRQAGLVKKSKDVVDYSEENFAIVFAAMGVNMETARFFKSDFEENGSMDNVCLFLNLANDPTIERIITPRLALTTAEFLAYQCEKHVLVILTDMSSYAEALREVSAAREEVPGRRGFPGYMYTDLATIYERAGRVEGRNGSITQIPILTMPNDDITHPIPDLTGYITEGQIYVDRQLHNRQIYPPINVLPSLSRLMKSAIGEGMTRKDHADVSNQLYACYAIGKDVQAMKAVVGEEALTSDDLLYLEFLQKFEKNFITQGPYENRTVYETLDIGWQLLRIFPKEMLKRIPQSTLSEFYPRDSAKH
# [4] = molecular target: T2, AEA-DA lipid probe targets in Neuro2a cells (Mus musculus, UniProt Q61712); conditions: for SILAC ratio, DNAJC1 (Q96KC8): Neuro2a cells, AEA-DA probe
# T2 sequence (Q61712 44-552): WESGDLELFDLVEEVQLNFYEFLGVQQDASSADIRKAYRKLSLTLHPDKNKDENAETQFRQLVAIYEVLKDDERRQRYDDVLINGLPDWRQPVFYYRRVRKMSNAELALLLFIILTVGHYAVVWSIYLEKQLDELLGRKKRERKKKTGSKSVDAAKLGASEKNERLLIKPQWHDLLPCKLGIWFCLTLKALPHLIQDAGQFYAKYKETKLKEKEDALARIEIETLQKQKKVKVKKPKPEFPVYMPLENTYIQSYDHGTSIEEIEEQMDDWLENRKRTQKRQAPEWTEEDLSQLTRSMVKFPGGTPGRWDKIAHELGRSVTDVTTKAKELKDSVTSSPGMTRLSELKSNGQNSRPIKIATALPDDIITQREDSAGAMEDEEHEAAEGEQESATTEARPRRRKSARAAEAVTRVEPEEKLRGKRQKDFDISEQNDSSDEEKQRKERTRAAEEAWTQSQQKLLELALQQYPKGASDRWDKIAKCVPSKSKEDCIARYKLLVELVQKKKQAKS
# [5] = molecular target: T3, AEA-DA lipid probe targets in Neuro2a cells (Mus musculus, UniProt Q925I1)
# T3 sequence (Q925I1 1-591): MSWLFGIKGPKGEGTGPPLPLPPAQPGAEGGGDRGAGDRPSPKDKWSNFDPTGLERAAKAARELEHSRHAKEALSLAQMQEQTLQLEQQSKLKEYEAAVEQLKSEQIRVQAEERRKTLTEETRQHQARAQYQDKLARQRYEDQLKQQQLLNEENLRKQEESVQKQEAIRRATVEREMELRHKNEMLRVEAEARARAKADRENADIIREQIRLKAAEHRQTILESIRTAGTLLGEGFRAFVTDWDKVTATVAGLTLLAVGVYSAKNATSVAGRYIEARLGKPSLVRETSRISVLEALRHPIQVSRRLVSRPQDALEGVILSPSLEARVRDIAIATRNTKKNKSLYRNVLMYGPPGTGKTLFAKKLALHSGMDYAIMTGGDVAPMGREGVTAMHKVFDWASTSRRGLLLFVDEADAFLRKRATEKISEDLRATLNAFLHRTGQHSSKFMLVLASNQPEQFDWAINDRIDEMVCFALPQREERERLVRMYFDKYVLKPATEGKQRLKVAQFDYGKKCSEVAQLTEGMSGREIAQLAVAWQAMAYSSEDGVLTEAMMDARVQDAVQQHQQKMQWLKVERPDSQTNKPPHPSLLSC
# [6] = molecular target: T4, AEA-DA lipid probe targets in Neuro2a cells (Mus musculus, UniProt Q9DC61)
# T4 sequence (Q9DC61 34-524): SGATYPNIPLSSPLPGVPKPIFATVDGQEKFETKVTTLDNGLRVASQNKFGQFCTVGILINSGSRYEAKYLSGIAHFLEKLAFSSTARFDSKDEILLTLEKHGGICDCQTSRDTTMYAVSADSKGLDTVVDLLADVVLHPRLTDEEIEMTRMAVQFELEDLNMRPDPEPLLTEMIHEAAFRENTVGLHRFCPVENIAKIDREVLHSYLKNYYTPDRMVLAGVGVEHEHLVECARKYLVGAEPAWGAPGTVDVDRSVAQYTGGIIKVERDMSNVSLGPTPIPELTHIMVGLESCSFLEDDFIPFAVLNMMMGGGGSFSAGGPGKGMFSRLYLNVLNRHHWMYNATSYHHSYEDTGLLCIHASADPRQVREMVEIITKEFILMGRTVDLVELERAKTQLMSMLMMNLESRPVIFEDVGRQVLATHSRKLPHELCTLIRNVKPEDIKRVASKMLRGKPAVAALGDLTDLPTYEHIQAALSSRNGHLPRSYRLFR
# [7] = molecular target: AEA-DA lipid probe targets in Neuro2a cells (Mus musculus, UniProt Q9DCH4)
# Sequence of AEA-DA lipid probe targets in Neuro2a cells (Mus musculus, UniProt Q9DCH4) (Q9DCH4 whole entry): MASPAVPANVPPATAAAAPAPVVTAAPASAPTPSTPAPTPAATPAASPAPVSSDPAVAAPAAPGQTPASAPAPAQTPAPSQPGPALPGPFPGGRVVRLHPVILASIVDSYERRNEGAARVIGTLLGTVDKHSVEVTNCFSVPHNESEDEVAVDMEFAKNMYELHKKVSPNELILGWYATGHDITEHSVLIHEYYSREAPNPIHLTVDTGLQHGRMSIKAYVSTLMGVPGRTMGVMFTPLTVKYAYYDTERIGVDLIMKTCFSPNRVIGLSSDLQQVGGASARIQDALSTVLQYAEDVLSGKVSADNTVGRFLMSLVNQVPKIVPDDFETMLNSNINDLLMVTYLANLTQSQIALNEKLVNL
# [8] = molecular target: T5, AEA-DA lipid probe targets in Neuro2a cells (Mus musculus, UniProt Q9EQI8)
# T5 sequence (Q9EQI8 1-283): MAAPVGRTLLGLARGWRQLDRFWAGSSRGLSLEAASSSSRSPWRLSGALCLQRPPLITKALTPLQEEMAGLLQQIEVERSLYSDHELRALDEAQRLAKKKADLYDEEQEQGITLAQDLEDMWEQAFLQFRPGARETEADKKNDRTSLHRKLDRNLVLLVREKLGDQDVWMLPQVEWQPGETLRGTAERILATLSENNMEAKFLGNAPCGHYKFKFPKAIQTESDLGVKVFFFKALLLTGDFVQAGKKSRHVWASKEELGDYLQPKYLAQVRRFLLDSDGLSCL
# [9] = molecular target: AEA-DA lipid probe targets in Neuro2a cells (Mus musculus, UniProt Q9R1P3)
# Sequence of AEA-DA lipid probe targets in Neuro2a cells (Mus musculus, UniProt Q9R1P3) (Q9R1P3 whole entry): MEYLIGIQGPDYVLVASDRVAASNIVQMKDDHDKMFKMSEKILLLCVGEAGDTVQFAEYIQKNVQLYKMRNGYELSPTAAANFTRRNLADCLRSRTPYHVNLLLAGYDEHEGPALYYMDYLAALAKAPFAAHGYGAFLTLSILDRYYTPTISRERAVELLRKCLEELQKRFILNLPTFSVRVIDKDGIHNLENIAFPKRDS
# [10] = molecular target: AEA-DA lipid probe targets in Neuro2a cells (Mus musculus, UniProt P97300); conditions: competitor 25 μM; for SILAC ratio, NPTN (Q9Y639): Neuro2a cells, AEA-DA probe
# Sequence of AEA-DA lipid probe targets in Neuro2a cells (Mus musculus, UniProt P97300) (P97300 29-397): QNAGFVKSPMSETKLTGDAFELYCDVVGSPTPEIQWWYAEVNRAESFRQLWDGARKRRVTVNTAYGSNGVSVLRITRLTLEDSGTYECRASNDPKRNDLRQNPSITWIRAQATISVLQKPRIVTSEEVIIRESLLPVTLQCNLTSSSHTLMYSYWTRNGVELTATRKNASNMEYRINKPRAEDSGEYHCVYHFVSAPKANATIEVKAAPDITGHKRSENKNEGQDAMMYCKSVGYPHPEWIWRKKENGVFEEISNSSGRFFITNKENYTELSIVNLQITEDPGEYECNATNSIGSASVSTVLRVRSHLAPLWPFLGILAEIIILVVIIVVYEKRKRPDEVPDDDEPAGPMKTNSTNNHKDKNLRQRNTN
# Sequence of AEA-DA lipid probe targets in Neuro2a cells (Mus musculus, UniProt P08113) (P08113 22-802): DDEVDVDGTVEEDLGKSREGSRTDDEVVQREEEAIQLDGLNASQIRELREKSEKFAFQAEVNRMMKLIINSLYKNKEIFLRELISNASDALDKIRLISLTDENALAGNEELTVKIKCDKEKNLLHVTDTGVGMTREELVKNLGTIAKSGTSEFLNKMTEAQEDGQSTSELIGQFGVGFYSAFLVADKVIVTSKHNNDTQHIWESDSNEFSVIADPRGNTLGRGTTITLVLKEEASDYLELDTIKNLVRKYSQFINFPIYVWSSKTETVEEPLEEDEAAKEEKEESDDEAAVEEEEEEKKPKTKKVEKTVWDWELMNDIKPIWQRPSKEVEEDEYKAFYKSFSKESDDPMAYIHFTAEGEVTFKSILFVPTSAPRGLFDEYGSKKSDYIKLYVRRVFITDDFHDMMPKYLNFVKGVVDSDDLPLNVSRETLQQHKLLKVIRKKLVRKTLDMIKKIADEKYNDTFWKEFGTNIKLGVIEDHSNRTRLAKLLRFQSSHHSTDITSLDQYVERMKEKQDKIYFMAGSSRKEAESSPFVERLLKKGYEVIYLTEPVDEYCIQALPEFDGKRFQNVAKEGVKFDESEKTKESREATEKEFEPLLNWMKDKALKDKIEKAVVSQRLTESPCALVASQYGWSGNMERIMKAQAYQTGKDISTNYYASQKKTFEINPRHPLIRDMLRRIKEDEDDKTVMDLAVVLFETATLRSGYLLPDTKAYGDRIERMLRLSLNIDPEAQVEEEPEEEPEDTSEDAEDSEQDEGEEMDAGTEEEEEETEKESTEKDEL
smiles,measurement,setting,value
"CCCCC/C=C\C/C=C\C/C=C\C/C=C\CCCC(=O)NCCO [AEA, anandamide, reference compound]",SILAC ratio Hsp90b1,[1]; competitor 200 μM,1.1
same,"SILAC ratio, Gstm2",[2]; competitor 200 μM,2.7
same,SILAC ratio Atp6v1b2,[3]; competitor 200 μM,1.1
same,"SILAC ratio, DNAJC1 (Q96KC8)",[4]; competitor 200 μM,2.1
same,"SILAC ratio, Dnajc1",[4]; competitor 200 μM,2.1
same,SILAC ratio Atad3,[5]; competitor 200 μM,1.5
same,"SILAC ratio, Pmpca",[6]; competitor 200 μM,1.9
same,SILAC ratio Eif3f,[7]; competitor 200 μM,1.4
same,SILAC ratio Mrpl46,[8]; competitor 200 μM,1.3
same,SILAC ratio Psmb2,[9]; competitor 200 μM,1.3
"O=C(/C=C/c1cccnc1)NCCCCC1CCN(C(=O)c2ccccc2)CC1 [FK-866, reference compound]",SILAC ratio Hsp90b1,[1]; competitor 25 μM,1.2
same,"SILAC ratio, Gstm2",[2]; competitor 25 μM,1.5
same,SILAC ratio Atp6v1b2,[3]; competitor 25 μM,1.6
same,"SILAC ratio, NPTN (Q9Y639)",[10],1.2
same,"SILAC ratio, Nptn",[10],1.2
same,"SILAC ratio, DNAJC1 (Q96KC8)",[4]; competitor 25 μM,1.4
same,"SILAC ratio, Dnajc1",[4]; competitor 25 μM,1.4
same,SILAC ratio Atad3,[5]; competitor 25 μM,1.2
same,"SILAC ratio, Pmpca",[6]; competitor 25 μM,1.2
same,SILAC ratio Eif3f,[7]; competitor 25 μM,1.3
same,SILAC ratio Mrpl46,[8]; competitor 25 μM,1.3
same,SILAC ratio Psmb2,[9]; competitor 25 μM,1.7
"CN1CCN(C(=O)c2c(-c3ccccc3)c3cc([N+](=O)[O-])ccc3n2C)CC1 [KML110, (1-Methyl-5-nitro-3-phenyl-1H-indol-2-yl)(4-methylpiperazin-1-yl)methanone]",SILAC ratio Hsp90b1,[1]; competitor 25 μM,1.4
same,SILAC ratio Atp6v1b2,[3]; competitor 25 μM,1.2
same,SILAC ratio Atad3,[5]; competitor 25 μM,1.2
same,"SILAC ratio, Pmpca",[6]; competitor 25 μM,1.6
same,SILAC ratio Eif3f,[7]; competitor 25 μM,1.3
same,SILAC ratio Mrpl46,[8]; competitor 25 μM,1.3
same,SILAC ratio Psmb2,[9]; competitor 25 μM,1.7
"CN1CCN(C(=O)c2[nH]c3ccc([N+](=O)[O-])cc3c2-c2ccccc2)CC1 [MJN228, (4-Methylpiperazin-1-yl)(5-nitro-3-phenyl-1H-indol-2-yl)methanone]",SILAC ratio Hsp90b1,[1]; competitor 10 μM,1.3
same,SILAC ratio Hsp90b1,[1]; competitor 25 μM,1.3
same,SILAC ratio Hsp90b1,[1]; competitor 50 μM,1.5
same,SILAC ratio Hsp90b1,[1]; competitor 100 μM,1.4
same,"SILAC ratio, Gstm2",[2]; competitor 10 μM,1.6
same,"SILAC ratio, Gstm2",[2]; competitor 25 μM,1.6
same,"SILAC ratio, Gstm2",[2]; competitor 100 μM,2.2
same,SILAC ratio Atp6v1b2,[3]; competitor 10 μM,1.2
same,SILAC ratio Atp6v1b2,[3]; competitor 25 μM,1.1
same,SILAC ratio Atp6v1b2,[3]; competitor 50 μM,0.9
same,"SILAC ratio, NPTN (Q9Y639)",[10],1.9
same,"SILAC ratio, Nptn",[10],1.9
same,"SILAC ratio, DNAJC1 (Q96KC8)",[4]; competitor 25 μM,1.6
same,"SILAC ratio, Dnajc1",[4]; competitor 10 μM,1.0
same,"SILAC ratio, Dnajc1",[4]; competitor 25 μM,1.6
same,"SILAC ratio, Dnajc1",[4]; competitor 50 μM,1.5
same,SILAC ratio Atad3,[5]; competitor 10 μM,1.1
same,SILAC ratio Atad3,[5]; competitor 25 μM,1.4
same,SILAC ratio Atad3,[5]; competitor 50 μM,1.3
same,SILAC ratio Atad3,[5]; competitor 100 μM,1.4
same,"SILAC ratio, Pmpca",[6]; competitor 10 μM,1.2
same,"SILAC ratio, Pmpca",[6]; competitor 25 μM,1.4
same,"SILAC ratio, Pmpca",[6]; competitor 50 μM,1.4
same,"SILAC ratio, Pmpca",[6]; competitor 100 μM,1.5
same,SILAC ratio Eif3f,[7]; competitor 10 μM,1.0
same,SILAC ratio Eif3f,[7]; competitor 25 μM,1.0
same,SILAC ratio Eif3f,[7]; competitor 100 μM,0.9
same,SILAC ratio Mrpl46,[8]; competitor 10 μM,1.0
same,SILAC ratio Mrpl46,[8]; competitor 25 μM,1.3
same,SILAC ratio Mrpl46,[8]; competitor 50 μM,1.0
same,SILAC ratio Mrpl46,[8]; competitor 100 μM,1.3
same,SILAC ratio Psmb2,[9]; competitor 10 μM,1.3
same,SILAC ratio Psmb2,[9]; competitor 25 μM,1.4
same,SILAC ratio Psmb2,[9]; competitor 50 μM,1.2
same,SILAC ratio Psmb2,[9]; competitor 100 μM,2.2
"C=CCN(C)CCCCCCOc1ccc(C(=O)c2ccc(Br)cc2)c(F)c1 [Ro 48-8071, reference compound]",SILAC ratio Hsp90b1,[1]; competitor 25 μM,0.9
same,"SILAC ratio, Gstm2",[2]; competitor 25 μM,1.3
same,SILAC ratio Atp6v1b2,[3]; competitor 25 μM,0.6
same,"SILAC ratio, NPTN (Q9Y639)",[10],2.0
same,"SILAC ratio, Nptn",[10],2.0
same,"SILAC ratio, DNAJC1 (Q96KC8)",[4]; competitor 25 μM,1.2
same,"SILAC ratio, Dnajc1",[4]; competitor 25 μM,1.2
same,SILAC ratio Atad3,[5]; competitor 25 μM,1.0
same,"SILAC ratio, Pmpca",[6]; competitor 25 μM,0.9
same,SILAC ratio Eif3f,[7]; competitor 25 μM,0.9
same,SILAC ratio Mrpl46,[8]; competitor 25 μM,0.9
same,SILAC ratio Psmb2,[9]; competitor 25 μM,1.0

# From US10168342B2, “Lipid probes and uses thereof” (THE SCRIPPS RESEARCH INSTITUTE, priority 2015, dated 2019)
